pEC50: −log10 of the molar value.
How the values were obtained:
[1] = system: recombinant NL4-3 virus (Renilla luciferase) in MT-2 cells; test: HIV cell culture assay (antiviral activity, luciferase readout); format: cell-based; details: Renilla, NL43
Summary of the method: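 MT-2 cells were infected with recombinant NL4-3 virus carrying Renilla luciferase in place of part of nef. Cells were cultured 4–5 days with serially diluted compound, and luciferase was measured with a live-cell substrate. EC50 was calculated from the median effect equation.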

[2] = Compound cytotoxicity, XTT-based colorimetric assay; format: cell-based; details: human; uninfected MT2 cells, day 4, XTT
Summary of the method: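 Run under the antiviral-assay protocol but without virus. Viability was read on day 4 and CC50 values were derived from the readout.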

Row | SMILES | pEC50 [1] | CC50 at 4 days [2]
1 | Cn1nc(NS(C)(=O)=O)c2c(Cl)ccc(-n3c([C@H](Cc4cc(F)cc(F)c4)NC(=O)Cn4nc(C(F)F)c5c4C(F)(F)[C@@H]4C[C@H]54)nc4cc(-c5cccnn5)ccc4c3=O)c21 (atropisomer, axis not shown; (P)) [Example 49, N—((S)-1-((3P)-3-(4-chloro-1-methyl-3-(methylsulfonamido)-1H-indazol-7-yl)-4-oxo-7-(pyridazin-3-yl)-3,4-dihydroquinazolin-2-yl)-2-(3,5-difluorophenyl)ethyl)-2-((3bS,4aR)-3-(difluoromethyl)-5,5-difluoro-3b,4,4a,5-tetrahydro-1H-cyclopropa[3,4]cyclopenta[1,2-c]pyrazol-1-yl)acetamide] | 10.15 | > 500 nM
2 | Cn1nc(NS(C)(=O)=O)c2c(Cl)ccc(-n3c([C@H](Cc4cc(F)cc(F)c4)NC(=O)Cn4nc(C(F)F)c5c4C(F)(F)[C@@H]4C[C@H]54)nc4cc(-c5ccccc5C(F)(F)F)ccc4c3=O)c21 (atropisomer, axis not shown; (P)) [Example 24, N—((S)-1-((3P)-3-(4-chloro-1-methyl-3-(methylsulfonamido)-1H-indazol-7-yl)-4-oxo-7-(2-(trifluoromethyl)phenyl)-3,4-dihydroquinazolin-2-yl)-2-(3,5-difluorophenyl)ethyl)-2-((3bS,4aR)-3-(difluoromethyl)-5,5-difluoro-3b,4,4a,5-tetrahydro-1H-cyclopropa[3,4]cyclopenta[1,2-c]pyrazol-1-yl)acetamide] | 9.08 | > 500 nM
3 | Cn1nc(NS(C)(=O)=O)c2c(Cl)ccc(-n3c([C@H](Cc4cc(F)cc(F)c4)NC(=O)Cn4nc(C(F)F)c5c4C(F)(F)[C@@H]4C[C@H]54)nc4cc(-c5ccnc(C6CCCC6)n5)ccc4c3=O)c21 (atropisomer, axis not shown; (P)) [Example 73, N—((S)-1-((3P)-3-(4-chloro-1-methyl-3-(methylsulfonamido)-1H-indazol-7-yl)-7-(2-cyclopentylpyrimidin-4-yl)-4-oxo-3,4-dihydroquinazolin-2-yl)-2-(3,5-difluorophenyl)ethyl)-2-((3bS,4aR)-3-(difluoromethyl)-5,5-difluoro-3b,4,4a,5-tetrahydro-1H-cyclopropa[3,4]cyclopenta[1,2-c]pyrazol-1-yl)acetamide] | 9.02 | > 500 nM
4 | Cc1ccc(-c2ccc3c(=O)n(-c4ccc(Cl)c5c(NS(=O)(=O)C6CC6)nn(CC(F)F)c45)c([C@H](Cc4cc(F)cc(F)c4)NC(=O)Cn4nc(C(F)F)c5c4C(F)(F)[C@@H]4C[C@H]54)nc3c2)nn1 (atropisomer, axis not shown; (P)) [Example 88, N—((S)-1-((3P)-3-(4-chloro-3-(cyclopropanesulfonamido)-1-(2,2-difluoroethyl)-1H-indazol-7-yl)-7-(6-methylpyridazin-3-yl)-4-oxo-3,4-dihydroquinazolin-2-yl)-2-(3,5-difluorophenyl)ethyl)-2-((3bS,4aR)-3-(difluoromethyl)-5,5-difluoro-3b,4,4a,5-tetrahydro-1H-cyclopropa[3,4]cyclopenta[1,2-c]pyrazol-1-yl)acetamide] | 10.24 | > 500 nM
5 | Cc1cc(C(F)(F)F)cc(-c2ccc3c(=O)n(-c4ccc(Cl)c5c(NS(C)(=O)=O)nn(C)c45)c([C@H](Cc4cc(F)cc(F)c4)NC(=O)Cn4nc(C(F)F)c5c4C(F)(F)[C@@H]4C[C@H]54)nc3c2)n1 (atropisomer, axis not shown; (P)) [Example 48, N—((S)-1-((3P)-3-(4-chloro-1-methyl-3-(methylsulfonamido)-1H-indazol-7-yl)-7-(6-methyl-4-(trifluoromethyl)pyridin-2-yl)-4-oxo-3,4-dihydroquinazolin-2-yl)-2-(3,5-difluorophenyl)ethyl)-2-((3bS,4aR)-3-(difluoromethyl)-5,5-difluoro-3b,4,4a,5-tetrahydro-1H-cyclopropa[3,4]cyclopenta[1,2-c]pyrazol-1-yl)acetamide] | 9.30 | > 500 nM
6 | Cn1nc(NS(C)(=O)=O)c2c(Cl)ccc(-n3c([C@H](Cc4cc(F)cc(F)c4)NC(=O)Cn4nc(C(F)F)c5c4C(F)(F)[C@@H]4C[C@H]54)nc4cc(-c5nccc(C(C)(C)C)n5)ccc4c3=O)c21 (atropisomer, axis not shown; (P)) [Example 47, N—((S)-1-(7-(4-(tert-butyl)pyrimidin-2-yl)-(3P)-3-(4-chloro-1-methyl-3-(methylsulfonamido)-1H-indazol-7-yl)-4-oxo-3,4-dihydroquinazolin-2-yl)-2-(3,5-difluorophenyl)ethyl)-2-((3bS,4aR)-3-(difluoromethyl)-5,5-difluoro-3b,4,4a,5-tetrahydro-1H-cyclopropa[3,4]cyclopenta[1,2-c]pyrazol-1-yl)acetamide] | 9.72 | > 500 nM
7 | Cn1nc(NS(C)(=O)=O)c2c(Cl)ccc(-n3c([C@H](Cc4cc(F)cc(F)c4)NC(=O)Cn4nc(C(F)F)c5c4C(F)(F)[C@@H]4C[C@H]54)nc4cc(-c5ncccc5S(C)(=O)=O)ccc4c3=O)c21 (atropisomer, axis not shown; (P)) [Example 8, N—((S)-1-((3P)-3-(4-chloro-1-methyl-3-(methylsulfonamido)-1H-indazol-7-yl)-7-(3-(methylsulfonyl)pyridin-2-yl)-4-oxo-3,4-dihydroquinazolin-2-yl)-2-(3,5-difluorophenyl)ethyl)-2-((3bS,4aR)-3-(difluoromethyl)-5,5-difluoro-3b,4,4a,5-tetrahydro-1H-cyclopropa[3,4]cyclopenta[1,2-c]pyrazol-1-yl)acetamide] | 10.11 | > 500 nM
8 | O=C(Cn1nc(C(F)F)c2c1C(F)(F)[C@@H]1C[C@H]21)N[C@@H](Cc1cc(F)cc(F)c1)c1nc2cc(-c3nccc(C(F)(F)F)n3)ccc2c(=O)n1-c1ccc(Cl)c2c(NS(=O)(=O)C3CC3)nn(CC(F)F)c12 (atropisomer, axis not shown; (P)) [Example 84, N—((S)-1-((3P)-3-(4-chloro-3-(cyclopropanesulfonamido)-1-(2,2-difluoroethyl)-1H-indazol-7-yl)-4-oxo-7-(4-(trifluoromethyl)pyrimidin-2-yl)-3,4-dihydroquinazolin-2-yl)-2-(3,5-difluorophenyl)ethyl)-2-((3bS,4aR)-3-(difluoromethyl)-5,5-difluoro-3b,4,4a,5-tetrahydro-1H-cyclopropa[3,4]cyclopenta[1,2-c]pyrazol-1-yl)acetamide] | 9.66 | > 500 nM
9 | Cc1ccc(-n2c([C@H](Cc3cc(F)cc(F)c3)NC(=O)Cn3nc(C(F)F)c4c3C(F)(F)[C@@H]3C[C@H]43)nc3cc(-c4ccccc4S(=O)(=O)C(C)(C)C)ccc3c2=O)c2c1c(NS(=O)(=O)C1CC1)nn2CC(F)F (atropisomer, axis not shown) [Example 142, N-[(1S)-1-{3-[3-cyclopropanesulfonamido-1-(2,2-difluoroethyl)-4-methyl-1H-indazol-7-yl]-7-[2-(2-methylpropane-2-sulfonyl)phenyl]-4-oxo-3,4-dihydroquinazolin-2-yl}-2-(3,5-difluorophenyl)ethyl]-2-[(2S,4R)-9-(difluoromethyl)-5,5-difluoro-7,8-diazatricyclo[4.3.0.0^2,^4]nona-1(6),8-dien-7-yl]acetamide] | 9.42 | > 500 nM

— patent US11541055B2, “Inhibitors of human immunodeficiency virus replication” (ViiV Healthcare UK (No. 5) LIMITED, priority 2018, dated 2023)
